# Measurements published in the supplement of paper PMC10307832.
# Tests used:
# Test in all cases: relative viability (nuclei count vs DMSO), 5 days (fraction); higher = more cells survive
# Neratinib = compound: CCOc1cc2ncc(C#N)c(Nc3ccc(OCc4ccccn4)c(Cl)c3)c2cc1NC(=O)/C=C/CN(C)C [Neratinib]
# Procedure, shortened: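 After an overnight hold at 37 °C, lung cancer cell lines in 1536-well plates were pinned with five library-drug doses (not always all listed), each √10 from the next, on vehicle-anchored plates. The cells stayed 5 days without fresh medium, then a one-step fix, permeabilisation and Hoechst stain preceded 4× imaging and MetaXpress nuclear counts. A plate passed only with control CV under 25% and at least one doubling. Viability is the median, over plates, of treated-well nuclei relative to vehicle-well nuclei.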
# Neratinib + Palbociclib = compound: CCOc1cc2ncc(C#N)c(Nc3ccc(OCc4ccccn4)c(Cl)c3)c2cc1NC(=O)/C=C/CN(C)C [Neratinib] + CC(=O)c1c(C)c2cnc(Nc3ccc(N4CCNCC4)cn3)nc2n(C2CCCC2)c1=O [Palbociclib] (partner 0.5 µM)
# Procedure, shortened: (§1)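 Nuclei were stained with Hoechst during a one-step fixation (final 0.05% Triton X-100, 1% formaldehyde, 1 ug/ml Hoechst) carried out 5 days after dosing, then counted on 4× images. The cells, lung cancer lines in 1536-well plates, had been dosed by pin tool the day after seeding with one drug alone or a fixed anchor-drug dose plus five library-drug doses (not always all listed) in √10 steps. Relative viability is the nuclei count in treated wells divided by that in vehicle wells, and each value is the median of duplicate plates.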
# Neratinib + Foretinib = compound: CCOc1cc2ncc(C#N)c(Nc3ccc(OCc4ccccn4)c(Cl)c3)c2cc1NC(=O)/C=C/CN(C)C [Neratinib] + COc1cc2c(Oc3ccc(NC(=O)C4(C(=O)Nc5ccc(F)cc5)CC4)cc3F)ccnc2cc1OCCCN1CCOCC1 [Foretinib] (partner 0.25 µM)
# Procedure, shortened: as §1
# Neratinib + OSI-027 = compound: CCOc1cc2ncc(C#N)c(Nc3ccc(OCc4ccccn4)c(Cl)c3)c2cc1NC(=O)/C=C/CN(C)C [Neratinib] + COc1cccc2cc(-c3nc([C@H]4CC[C@H](C(=O)O)CC4)n4ncnc(N)c34)[nH]c12 [OSI-027] (partner 0.5 µM)
# Procedure, shortened: as §1
Cell Line,relative viability (Neratinib; 0.01 µM),relative viability (Neratinib; 0.03162 µM),relative viability (Neratinib; 0.1 µM),relative viability (Neratinib; 0.3162 µM),relative viability (Neratinib; 1 µM),relative viability (Neratinib + Palbociclib; first compound 0.01 µM),relative viability (Neratinib + Palbociclib; first compound 0.03162 µM),relative viability (Neratinib + Palbociclib; first compound 0.1 µM),relative viability (Neratinib + Palbociclib; first compound 0.3162 µM),relative viability (Neratinib + Palbociclib; first compound 1 µM),relative viability (Neratinib + Foretinib; first compound 0.01 µM),relative viability (Neratinib + Foretinib; first compound 0.03162 µM),relative viability (Neratinib + Foretinib; first compound 0.1 µM),relative viability (Neratinib + Foretinib; first compound 0.3162 µM),relative viability (Neratinib + Foretinib; first compound 1 µM),relative viability (Neratinib + OSI-027; first compound 0.01 µM),relative viability (Neratinib + OSI-027; first compound 0.03162 µM),relative viability (Neratinib + OSI-027; first compound 0.1 µM),relative viability (Neratinib + OSI-027; first compound 0.3162 µM),relative viability (Neratinib + OSI-027; first compound 1 µM)
ChaGo-K-1,0.995,1.12,0.896,0.865,0.971,0.997,0.986,0.93,0.956,0.867,0.945,1.07,0.884,0.888,0.718,0.62,0.545,0.574,0.459,0.613
EBC-1,1.02,1.12,0.872,0.993,0.813,–,–,–,–,–,0.102,0.0886,0.111,0.113,0.0982,–,–,–,–,–
EKVX,1.04,0.976,0.812,0.43,0.25,0.384,0.448,0.243,0.132,0.152,0.697,0.952,0.578,0.567,0.193,0.712,0.693,0.656,0.365,0.195
EMC-BAC-2,1.32,1.01,0.977,0.935,0.722,0.538,0.526,0.492,0.532,0.41,1.19,0.99,0.669,–,0.54,0.36,0.456,0.344,0.361,0.291
EPLC-272H,0.867,0.869,0.841,0.666,0.358,0.357,0.309,0.224,0.295,0.292,–,0.431,0.45,0.419,0.194,–,0.294,–,0.24,0.194
H3255,1.07,0.985,0.78,0.327,0.224,0.304,0.324,0.305,0.256,0.201,0.976,0.425,0.716,0.334,0.17,0.559,0.571,0.436,0.212,0.215
HARA,1.02,1.05,0.668,0.663,0.644,0.24,0.275,0.237,0.195,0.227,0.973,0.91,–,0.496,0.375,0.533,0.527,–,0.225,0.129
HCC-15,1.04,1.15,0.932,0.878,0.886,0.764,0.828,0.738,0.692,0.511,1.07,1.21,–,0.885,0.66,0.707,0.794,0.6,0.559,0.511
HCC-44,1.06,1.01,1.01,0.943,1.06,1.02,0.969,–,0.926,0.966,–,–,–,–,–,0.723,0.655,0.648,0.505,0.548
